Experimental data from patent publication US20230167101A1, “NOVEL INHIBITORS OF HISTONE […] P300/CBP FOR CANCER THERAPY” (BAYLOR COLLEGE OF MEDICINE, priority 2020, published 2023).
Entries after “also recorded” stand apart in the source; their conditions may differ.

What was measured:
[1] = tested on: PANC-1; experiment: Cell growth inhibition, PANC-1 (MTT); assay type: cell-based; conditions: PANC-1, 5 days; read-out: EC50, antiproliferative activity
Protocol: (§1) The anti-proliferation assays for non-breast cancer cells were done using a previously developed assay. In brief, for Kasumi-1 cells, […] were added into 96-well plates and cultured with increasing concentrations of a compound in RPMI-1640 medium supplemented with 20% fetal bovine serum and penicillin (100 U/mL) and streptomycin (100 µg/mL) at 37° C. in a 5% CO2 atmosphere with 100% humidity. For solid tumor cells, 10^5 cells per well were added into 96-well plates and cultured in Dulbecco’s Modified Eagle’s Medium (DMEM) supplemented with 10% fetal bovine serum and penicillin (100 U/mL) and streptomycin (100 µg/mL) overnight. Upon addition of increasing concentrations of a compound, cells were incubated for 5 days. Cell viability was assessed by using an XTT assay kit (Roche) for leukemia cells or an MTT assay (Sigma) for attachment cells. For the breast cancer MCF-7 cells, culture and inhibition assays were performed according to our previous methods in Ref. 25 and 26. Compound EC50 values were calculated from dose response curves using Prism 5.0.

[2] = tested on: Kasumi-1 leukemia cells; experiment: Cellular histone acetylation, Western blot; assay type: cell-based; conditions: Kasumi-1 cells, 12 h, 5 and 10 µM
Protocol: Kasumi-1 leukemia cells were treated with increasing concentrations of these compounds for 12 h. Histone was extracted and subjected to electrophoresis separation and Western blot staining to determine levels of acetylation at various lysine residues. […] H3K27 seems to be the most sensitive cellular substrate of p300 HAT. […] This might be due to different mode of inhibition or cell permeability for the two compounds.
About 10^6 Kasumi-1 cells per well were incubated with compound 11 at 0, 5 and 10 µM for 12 hours. Histone proteins were extracted using EpiQuik total histone extraction kit (Epigentek), according to the manufacturer’s protocol. Equal amounts of histones (2 µg) were separated on SDS-PAGE and transferred to PVDF membranes. The blots were probed with primary antibodies against H3K9Ac, H3K18Ac, H3K27Ac and H3 (Cell Signaling), followed by anti-rabbit IgG (Thermo Scientific) secondary antibodies.

[3] = tested on: ER+ breast cancer MCF-7 cells; experiment: RNA sequencing / gene set enrichment analysis (GSEA); assay type: cell-based, human; conditions: MCF-7, 6 µM, 48 h, with estradiol 10 nM
Protocol: RNA sequencing was used to investigate how treatment with p300 HAT inhibitor 12 affects gene expression in ER^+ breast cancer MCF-7 cells. […] RNA sequencing data were mapped onto the human genome and gene expression profiles were determined and normalized. […] Gene set enrichment analysis (GSEA)(31) was used to analyze significant gene expression changes between these three groups of MCF-7 cells.
Upon starvation (culturing in phenol red-free DMEM medium with 10% charcoal treated FBS to remove hydrophobic hormones such as estrogens) for 7 days, MCF-7 cells were treated with the p300 inhibitor (6 µM) or DMSO control, in the presence or absence of (10 nM) estradiol (E2) for 48 hours. Total RNA was extracted using RNeasy Plus Mini Kit (Qiagen), according to the manufacturer’s instruction.
The RNA integrity for each sample was assessed with a RNA 6000 Nano chip on a 2100 Bioanalyzer (Agilent; Santa Clara, CA). The average RNA integrity score for the sample set was 6.48. Sequencing libraries were prepared using the TruSeq Stranded Total RNA Library Prep Kit (Illumina, Inc; San Diego, CA). Concisely, ribosomal RNA (rRNA) was depleted from total RNA where the remaining (ribo-depleted RNA) was purified, fragmented for 7.5 minutes, and primed for cDNA synthesis. […] The concentration of each library was determined by quantitative PCR (qPCR) by the KAPA Library Quantification Kit for Next Generation Sequencing (KAPA Biosystems; Woburn, MA).
Libraries were normalized to 50 nmol/L in 10 mM Tris-Cl, pH8.5 with 0.1% Tween 20 then pooled evenly. […] Sequencing-by-synthesis (SBS) was performed on a HiSeq 2500 utilizing v2 chemistry with paired-end 101 bp reads and a 6 bp index read culminating in an average output of 20 million paired-end reads (or 40 million total reads) per sample. Sequence read data were processed and converted to FASTQ format by Illumina BaseSpace analysis software (v2.0.13).
RNAseq data files were trimmed using Trim Galore!. […] Gene expression was assessed and fragments per kilobase of transcript per million (FPKM) values were determined using Stringtie. […]

[4] = tested on: Kasumi-1; experiment: Cell growth inhibition, Kasumi-1 (XTT); assay type: cell-based; conditions: Kasumi-1, 5 days; read-out: EC50, antiproliferative activity
Protocol: as §1

[5] = tested on: MCF-7 (Tam-R); experiment: Cell growth inhibition, tamoxifen-resistant MCF-7; assay type: cell-based; conditions: read-out: EC50, antiproliferative activity
Protocol: as §1

[6] = biological target: T1, Myst3 (Homo sapiens, UniProt Q92794); experiment: Myst3 HAT inhibition assay; assay type: biochemical
T1 construct: made in house

[7] = tested on: MDA-PANC-28; experiment: Cell growth inhibition, MDA-PANC-28 (MTT); assay type: cell-based; conditions: MDA-PANC-28, 5 days; read-out: EC50, antiproliferative activity
Protocol: as §1

T1 sequence (Q92794 whole entry): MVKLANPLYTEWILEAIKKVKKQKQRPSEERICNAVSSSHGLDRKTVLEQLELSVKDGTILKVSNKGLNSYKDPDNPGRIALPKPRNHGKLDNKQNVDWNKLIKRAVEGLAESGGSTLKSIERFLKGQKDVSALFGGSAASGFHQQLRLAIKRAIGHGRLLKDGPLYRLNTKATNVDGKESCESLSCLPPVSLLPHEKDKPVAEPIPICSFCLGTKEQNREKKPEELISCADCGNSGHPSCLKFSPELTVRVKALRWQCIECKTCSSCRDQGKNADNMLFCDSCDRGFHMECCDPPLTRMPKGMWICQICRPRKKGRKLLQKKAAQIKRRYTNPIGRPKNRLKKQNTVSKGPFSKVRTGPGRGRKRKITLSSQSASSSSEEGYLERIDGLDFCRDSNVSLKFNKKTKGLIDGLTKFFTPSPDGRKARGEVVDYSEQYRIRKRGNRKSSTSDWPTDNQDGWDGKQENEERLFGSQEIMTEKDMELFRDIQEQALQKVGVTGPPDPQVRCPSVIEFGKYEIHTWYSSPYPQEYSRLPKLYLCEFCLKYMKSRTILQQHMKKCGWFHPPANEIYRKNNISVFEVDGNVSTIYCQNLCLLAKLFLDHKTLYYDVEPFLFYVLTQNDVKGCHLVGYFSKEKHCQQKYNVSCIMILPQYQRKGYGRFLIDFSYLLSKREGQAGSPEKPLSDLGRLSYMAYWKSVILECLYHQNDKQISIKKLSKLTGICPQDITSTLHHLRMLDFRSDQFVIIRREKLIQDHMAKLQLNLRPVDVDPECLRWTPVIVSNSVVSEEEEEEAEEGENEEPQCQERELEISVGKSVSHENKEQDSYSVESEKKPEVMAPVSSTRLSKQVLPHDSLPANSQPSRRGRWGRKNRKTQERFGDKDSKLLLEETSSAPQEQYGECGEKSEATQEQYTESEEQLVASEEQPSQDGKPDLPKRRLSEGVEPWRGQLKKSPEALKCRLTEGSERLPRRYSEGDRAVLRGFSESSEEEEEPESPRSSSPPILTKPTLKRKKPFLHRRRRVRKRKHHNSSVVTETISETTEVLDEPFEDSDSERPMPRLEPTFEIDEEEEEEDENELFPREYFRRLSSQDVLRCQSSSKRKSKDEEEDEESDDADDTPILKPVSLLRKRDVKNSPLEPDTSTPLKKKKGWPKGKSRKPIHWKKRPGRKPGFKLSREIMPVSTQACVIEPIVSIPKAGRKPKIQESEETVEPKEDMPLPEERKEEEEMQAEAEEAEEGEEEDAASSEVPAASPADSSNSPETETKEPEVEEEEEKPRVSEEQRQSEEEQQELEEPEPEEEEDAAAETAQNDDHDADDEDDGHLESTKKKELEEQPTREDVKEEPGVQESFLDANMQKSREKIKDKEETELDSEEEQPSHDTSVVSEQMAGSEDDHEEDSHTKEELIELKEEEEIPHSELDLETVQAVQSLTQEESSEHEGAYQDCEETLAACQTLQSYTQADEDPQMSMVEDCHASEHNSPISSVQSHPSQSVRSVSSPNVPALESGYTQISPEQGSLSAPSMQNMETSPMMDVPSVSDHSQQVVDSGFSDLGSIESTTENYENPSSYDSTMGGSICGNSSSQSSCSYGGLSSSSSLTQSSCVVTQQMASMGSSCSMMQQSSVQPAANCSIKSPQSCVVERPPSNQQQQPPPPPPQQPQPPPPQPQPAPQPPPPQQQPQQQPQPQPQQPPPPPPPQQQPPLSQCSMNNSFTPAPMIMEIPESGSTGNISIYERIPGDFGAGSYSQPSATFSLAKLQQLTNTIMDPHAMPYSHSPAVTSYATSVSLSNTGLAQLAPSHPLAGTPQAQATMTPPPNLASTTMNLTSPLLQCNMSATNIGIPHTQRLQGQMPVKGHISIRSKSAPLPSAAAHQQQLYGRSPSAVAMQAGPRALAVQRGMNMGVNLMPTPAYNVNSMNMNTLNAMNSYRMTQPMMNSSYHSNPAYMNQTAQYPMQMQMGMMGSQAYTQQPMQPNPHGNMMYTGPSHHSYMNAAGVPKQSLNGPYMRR

## CC(C)(C)c1ccc(-c2cc(CNCC3CCNCC3)sc2-c2ccc(C(C)(C)C)cc2)cc1 [Compound 12]
[1]
  EC50: 1 µM
[2]
  cellular acetylation of histone H3K9, H3K18 and H3K27: significantly inhibit; also recorded: inhibited
[3]; FIG. 7A
  normalized enrichment score (NES), genes suppressed by p300 knockdown (GSE31873): -3.32
[3]; FIG. 7B
  NES, gene set upregulated by estradiol: -9.19
[3]; FIG. 7C
  NES, genes suppressed by estradiol: 7.41
[4]
  EC50: 2.6 µM
[5]
  EC50: 3.4 µM
[6]; at 20 µM
  inhibition of Myst3: < 10%
  inhibition of Myst3 activity (in words): did not significantly inhibit
[6]; read-out: IC50 against Myst3
  IC50: > 20 µM
[7]
  EC50: 2.8 µM
